SMILES strings stand for the structures.

A word on the IC50: it is the concentration that gives 50% inhibition. In general, EC50 refers to the concentration giving half of the maximal effect.

Experiment [1] has as its target C-X-C chemokine receptor type 4 (Homo sapiens, UniProt P61073). Nature of the experiment: Displacement of [125I]-CXCL12 from human CXCR4 receptor expressed in Jurkat cells incubated for 2 hrs by radiolabeled ligand binding assay. Type of experiment: cell-based.
Experiment [2] addresses T1, Atypical chemokine receptor 3 (Homo sapiens, UniProt P25106). Nature of the experiment: Displacement of [125I]-CXCL12 from human CXCR7 receptor expressed in CHOK1 cell membranes incubated for 2 hrs by radiolabeled ligand binding assay. Set-up: species or system CHO-K1.
In experiment [3] the target is T1, Atypical chemokine receptor 3. In words: Agonist activity at human CXCR7 receptor expressed in CHOK1 cell membranes assessed as increase in beta-arrestin recruitment incubated for 30 mins. The experiment is classed as cell-based, CHO-K1. (In general: Activated receptors often draw arrestin, which recruitment assays turn into a signal.)

T1 sequence (P25106 whole entry): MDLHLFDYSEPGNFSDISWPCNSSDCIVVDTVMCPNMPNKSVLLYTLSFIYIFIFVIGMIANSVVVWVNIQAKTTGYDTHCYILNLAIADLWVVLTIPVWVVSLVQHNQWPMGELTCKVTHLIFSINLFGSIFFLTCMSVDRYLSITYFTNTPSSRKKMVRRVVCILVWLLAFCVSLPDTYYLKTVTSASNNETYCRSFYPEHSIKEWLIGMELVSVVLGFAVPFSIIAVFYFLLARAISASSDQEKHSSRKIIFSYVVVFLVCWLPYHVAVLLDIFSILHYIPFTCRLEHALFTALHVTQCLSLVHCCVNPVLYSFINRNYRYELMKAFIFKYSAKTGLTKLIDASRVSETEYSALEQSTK
C-X-C chemokine receptor type 4, sequence (P61073 whole entry): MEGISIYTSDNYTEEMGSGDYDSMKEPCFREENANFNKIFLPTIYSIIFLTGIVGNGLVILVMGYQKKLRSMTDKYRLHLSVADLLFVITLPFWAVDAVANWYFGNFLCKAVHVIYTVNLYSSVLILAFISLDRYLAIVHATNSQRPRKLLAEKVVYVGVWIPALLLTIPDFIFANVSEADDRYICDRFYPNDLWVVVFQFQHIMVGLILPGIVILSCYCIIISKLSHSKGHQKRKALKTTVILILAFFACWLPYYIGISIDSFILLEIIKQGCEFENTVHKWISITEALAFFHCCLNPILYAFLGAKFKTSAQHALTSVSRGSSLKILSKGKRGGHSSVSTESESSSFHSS

`NC(=O)C(c1ccccc1)(c1ccccc1)[C@@H]1CCN(CCOc2ccc(-c3nccs3)cc2)C1` had an IC50 in experiment [1] above 15 µM.

`NC(=O)C(c1ccccc1)(c1ccccc1)[C@@H]1CCN(CCOc2ccc(C3=NCCO3)cc2)C1`: the Ki in experiment [2] (read-out: Ki) was found to be 6.54 µM. Also, the EC50 in experiment [3] is above 10 µM.

On to `Cc1noc(-c2ccc(OCCN3CC[C@@H](C(C(N)=O)(c4ccccc4)c4ccccc4)C3)cc2)n1`, for which the Ki in experiment [2] (read-out: Ki) is 11.8 µM. Moreover, the EC50 in experiment [3] is above 10 µM.

As to `NC(=O)C(c1ccccc1)(c1ccccc1)[C@@H]1CCN(CCOc2ccc(-c3nnco3)cc2)C1`, the Ki in experiment [2] (read-out: Ki) was 4.09 µM; in experiment [2] (read-out: pKi (converted)) it was 4.17 µM. Also, the EC50 in experiment [3] was above 10 µM.
